Consider 18 compounds from patent US20250011288A1 (BRISTOL-MYERS SQUIBB COMPANY, priority 2021, published 2025).

The EC50 is the concentration at which the effect is half-maximal. Higher therefore signals a need for much substance.

The target of the assay is T1, human RXFP1 (Homo sapiens, UniProt Q9HBX9).
T1 construct: expressed in transfected cells
T1 sequence (Q9HBX9 1-757): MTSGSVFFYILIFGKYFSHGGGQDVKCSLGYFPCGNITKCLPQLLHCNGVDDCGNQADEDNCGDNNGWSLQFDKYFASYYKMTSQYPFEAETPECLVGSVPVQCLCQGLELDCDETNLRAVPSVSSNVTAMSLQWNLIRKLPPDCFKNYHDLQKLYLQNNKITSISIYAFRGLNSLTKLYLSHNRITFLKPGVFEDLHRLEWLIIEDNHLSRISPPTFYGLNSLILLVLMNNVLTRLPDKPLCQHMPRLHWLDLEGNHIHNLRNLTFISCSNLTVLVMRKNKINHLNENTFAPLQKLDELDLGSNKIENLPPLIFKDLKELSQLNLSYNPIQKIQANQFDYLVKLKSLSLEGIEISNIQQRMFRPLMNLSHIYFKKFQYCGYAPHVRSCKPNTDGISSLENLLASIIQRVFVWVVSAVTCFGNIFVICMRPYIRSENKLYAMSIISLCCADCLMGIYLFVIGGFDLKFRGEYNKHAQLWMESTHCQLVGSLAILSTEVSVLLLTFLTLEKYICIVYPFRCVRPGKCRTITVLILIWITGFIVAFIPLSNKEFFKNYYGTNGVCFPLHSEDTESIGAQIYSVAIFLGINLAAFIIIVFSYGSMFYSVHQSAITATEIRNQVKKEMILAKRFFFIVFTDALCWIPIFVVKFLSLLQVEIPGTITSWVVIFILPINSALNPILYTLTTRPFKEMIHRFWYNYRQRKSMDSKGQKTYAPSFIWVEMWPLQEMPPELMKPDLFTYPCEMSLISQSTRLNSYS
The experiment in a line: human RXFP1 (hRXFP1) HEK293 cAMP assay (HTRF). In kind it is cell-based. The conditions noted are these: HEK293 cells stably expressing human RXFP1, 30 min at room temperature. The procedure, abridged: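 HEK293 cells stably expressing human RXFP1 (1500 cells/well) in HBSS/20 mM HEPES/0.05% BSA/0.5 mM IBMX, treated with compound (0.010 nM–50 µM final, 2% DMSO) for 30 min at room temperature. Intracellular cAMP read by HTRF; potency from 4-parameter logistic fit of cAMP versus concentration.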
With `COc1ncc(C2=NOC3CC(CO)CC23)cc1C(=O)N[C@@H]1C2CCC(/C2=C/C2CC2)[C@@H]1C(=O)Nc1ccc(F)c(C(F)(F)F)c1` (single isomer, unassigned) [Example 68], a half-maximal response (EC50) required 130 nM.

`COc1ncc(C2=NOC3CC(C(O)C(F)(F)F)CC23)cc1C(=O)N[C@H]1[C@@H](C(=O)N[C@H](C)C2(C)CC2)[C@H]2CC[C@@H]1/C2=C\C1CC(F)(F)C1` (stereo partly drawn) [Example 170, N-[(1R,2R,3S,4R, 7Z)-7-[(3,3-difluorocyclobutyl)methylidene]-3-{[(1R)-1-(1-methylcyclo-propyl)ethyl]carbamoyl}bicyclo[2.2.1]heptan-2-yl]-2-methoxy-5-[5-(2,2,2-trifluoro-1-hydroxyethyl)-3aH,4H,5H,6H, 6aH-cyclopenta[d] [1,2]oxazol-3-yl]pyridine-3-carboxamide] showed an EC50 of 3.3 nM.

With `COc1ncc(C2=NOC3CC(C(O)C(F)(F)F)CC23)cc1C(=O)N[C@H]1[C@@H](C(=O)Nc2ccc(F)c(C(F)(F)F)c2)[C@H]2CC[C@@H]1/C2=C\C1CC1` (stereo partly drawn) [Example 130, N-((1R,2R,3S,4R,Z)-7-(cyclopropylmethylene)-3-((4-fluoro-3-(trifluoromethyl)phenyl)carbamoyl)bicyclo[2.2.1]heptan-2-yl)-2-methoxy-5-(5-(2,2,2-trifluoro-1-hydroxyethyl)-3a,5,6,6a-tetrahydro-4H-cyclopenta[d]isoxazol-3-yl)nicotinamide], it took 1.2 nM to reach a half-maximal effect (EC50). Compound `CC(O)C1CC2ON=C(c3cc4c(c(C(=O)N[C@H]5[C@@H](C(=O)N[C@H](C)C6(C)CC6)[C@H]6CC[C@@H]5/C6=C\C5CC5)c3)OC(C)(C)C4)C2C1` (stereo partly drawn) [Example 176, N-[(1R,2R,3S,4R, 7Z)-7-(cyclopropyl-methylidene)-3-{[(1R)-1-(1-methylcyclopropyl)ethyl]carbamoyl}bicyclo[2.2.1]heptan-2-yl]-5-[5-(1-hydroxyethyl)-3aH,4H,5H,6H, 6aH-cyclopenta[d][1,2]oxazol-3-yl]-2,2-dimethyl-2,3-dihydro-1-benzofuran-7-carboxamide] registered an EC50 of 6 nM.

With `COc1ncc(C2=NOC3CC(C(C)O)CC23)cc1C(=O)N[C@H]1[C@@H](C(=O)Nc2ccc(F)c(C(F)(F)F)c2)[C@H]2CC[C@@H]1/C2=C\C1CC1` (stereo partly drawn) [Example 110, N-((1R,2R,3S, 4R,Z)-7-(cyclopropyl-methylene)-3-((4-fluoro-3-(trifluoromethyl)phenyl)carbamoyl)bicyclo[2.2.1]heptan-2-yl)-5-(5-(1-hydroxyethyl)-3a,5,6,6a-tetrahydro-4H-cyclopenta[d]isoxazol-3-yl)-2-methoxy-nicotinamide], the EC50 was 3.5 nM. The result for `COc1ncc(C2=NOC3CC(C(O)C(F)(F)F)CC23)cc1C(=O)N[C@H]1[C@@H](C(=O)NC23CC(C#N)(C2)C3)[C@H]2CC[C@@H]1/C2=C\C1CC1` (stereo partly drawn) [Example 108, N-((1R,2R,3S,4R,Z)-3-((3-cyanobicyclo [1.1.1]pentan-1-yl)carbamoyl)-7-(cyclopropyl-methylene)bicyclo[2.2.1]heptan-2-yl)-2-methoxy-5-(5-(2,2,2-trifluoro-1-hydroxyethyl)-3a,5,6,6a-tetrahydro-4H-cyclopenta[d]isoxazol-3-yl)nicotinamide] reads 3.5 nM; that for `CC(O)C1CC2ON=C(c3cc4c(c(C(=O)N[C@H]5[C@@H](C(=O)Nc6ccc(F)c(C(F)(F)F)c6)[C@H]6CC[C@@H]5/C6=C\C5CC5)c3)OC(C)(C)C4)C2C1` (stereo partly drawn) [Example 175, N-[(1R,2R,3S,4R, 7Z)-7-(cyclopropyl-methylidene)-3-{[4-fluoro-3-(trifluoromethyl)phenyl]carbamoyl}bicyclo[2.2.1]heptan-2-yl]-5-[5-(1-hydroxyethyl)-3aH,4H,5H,6H, 6aH-cyclopenta[d][1,2]oxazol-3-yl]-2,2-dimethyl-2,3-dihydro-1-benzofuran-7-carboxamide], 7.8 nM; that for `COc1ncc(C2=NOC3CC(CO)CC23)cc1C(=O)N[C@@H]1C2CCC(/C2=C/C2CC2)[C@@H]1C(=O)Nc1ccc(F)c(C(F)(F)F)c1` (single isomer, unassigned) [Example 69], 1.5 nM.

With `COc1ncc(C2=NOC3CC(C(O)C(F)(F)F)CC23)cc1C(=O)N[C@H]1[C@@H](C(=O)Nc2ccc(F)c(C(F)(F)F)c2)[C@H]2CC[C@@H]1/C2=C\C1CC1` (stereo partly drawn) [Example 131, N-((1R,2R,3S,4R,Z)-7-(cyclopropyl-methylene)-3-((4-fluoro-3-(trifluoromethyl)phenyl)carbamoyl)bicyclo[2.2.1]heptan-2-yl)-2-methoxy-5-(5-(2,2,2-trifluoro-1-hydroxyethyl)-3a,5,6,6a-tetrahydro-4H-cyclopenta[d]isoxazol-3-yl)nicotinamide], a half-maximal effect (EC50) was put at 1.6 nM. In turn, `COc1ncc(C2=NOC3CC(C(O)C(F)(F)F)CC23)cc1C(=O)N[C@H]1[C@@H](C(=O)Nc2ccc(F)c(C(F)(F)F)c2)[C@H]2CC[C@@H]1/C2=C\CC(O)C(F)(F)F` (stereo partly drawn) [Example 129, N-((1R,2R,3S,4R,Z)-3-((4-fluoro-3-(trifluoromethyl)phenyl)carbamoyl)-7-(4,4,4-trifluoro-3-hydroxybutylidene)bicyclo[2.2.1]heptan-2-yl)-2-methoxy-5-(5-(2,2,2-trifluoro-1-hydroxyethyl)-3a,5,6,6a-tetrahydro-4H-cyclopenta[d]isoxazol-3-yl)nicotinamide] displayed an EC50 of 5 nM. The result for `COc1ncc(C2=NOC3CC(CO)CC23)cc1C(=O)N[C@@H]1C2CCC(/C2=C/C2CC2)[C@@H]1C(=O)Nc1ccc(F)c(C(F)(F)F)c1` (single isomer, unassigned) [Example 67] reads 300 nM; that for `COc1ncc(Br)cc1C(=O)N[C@@H]1C2CCC(C2=C(C)C)[C@@H]1C(=O)Nc1ccc(F)c(C(F)(F)F)c1` (stereo partly drawn) [Example 1, 5-bromo-N-[(2R,3S)-3-{[4-fluoro-3-(trifluoromethyl)phenyl]carbamoyl}-7-(propan-2-ylidene)bicyclo[2.2.1]heptan-2-yl]-2-methoxypyridine-3-carboxamide], 710 nM; that for `COc1ncc(C2=NOC3CC(CO)CC23)cc1C(=O)N[C@H]1[C@@H](C(=O)N[C@H](C)C2(C)CC2)[C@H]2CC[C@@H]1/C2=C\C1CC1` (stereo partly drawn) [Example 105, N-((1R,2R,3S,4R,Z)-7-(cyclopropyl-methylene)-3-(((R)-1-(1-methylcyclopropyl)ethyl)carbamoyl)bicyclo[2.2.1]heptan-2-yl)-5-(5-(hydroxymethyl)-3a,5,6,6a-tetrahydro-4H-cyclopenta[d]isoxazol-3-yl)-2-methoxynicotinamide], 1.2 nM. The figure for `CC1Cc2cc(C3=NOC4CC(O)(C(F)(F)F)CC34)cc(C(=O)N[C@H]3[C@@H](C(=O)Nc4ccc(F)c(C(F)(F)F)c4)[C@H]4CC[C@@H]3/C4=C\C3CCCC3)c2O1` (stereo partly drawn) [Example 156, N-[(1R,2R,3S,4R, 7Z)-7-(cyclopentyl-methylidene)-3-{[4-fluoro-3-(trifluoromethyl)phenyl]carbamoyl}bicyclo[2.2.1]heptan-2-yl]-5-[5-hydroxy-5-(trifluoromethyl) 3aH,4H,5H,6H, 6aH-cyclopenta[d][1,2]oxazol-3-yl]-2-methyl-2,3-dihydro-1-benzofuran-7-carboxamide] is 1.3 nM; for `Cn1cc(Br)cc(C(=O)N[C@@H]2C3CCC(/C3=C/C3CC3)[C@@H]2C(=O)Nc2ccc(F)c(C(F)(F)F)c2)c1=O` (stereo partly drawn) [Example 18, 5-bromo-N-[(2R,3S,7Z)-7-(cyclopropyl-methylidene)-3-{[4-fluoro-3-(trifluoromethyl)phenyl]carbamoyl}bicyclo [2.2.1]heptan-2-yl]-1-methyl-2-oxo-1,2-dihydropyridino-3-carboxamide] it is 2100 nM. The result for `COc1cnc(-c2cccc(C(=O)O)c2)cc1C(=O)N[C@@H]1C2CCC(/C2=C/C(F)(F)F)[C@@H]1C(=O)Nc1ccc(F)c(C(F)(F)F)c1` (stereo partly drawn) [Example 31, 3-(4-{[(2R,3S,7Z)-3-{[4-fluoro-3-(trifluoromethyl)phenyl]carbamoyl}-7-(2,2,2-trifluoroethylidene)bicyclo[2.2.1]heptan-2-yl]carbamoyl}-5-methoxypyridin-2-yl)benzoic acid] reads 162 nM; that for `COc1ncc(C2=NO[C@H]3C[C@H](CO)CN23)cc1C(=O)N[C@@H]1C2CCC(/C2=C/C2CC2)[C@@H]1C(=O)N[C@H](C)C1(C)CC1` (stereo partly drawn) [Example 107, N-((1R,2R,3S, 4R,Z)-7-(cyclopropyl-methylene)-3-(((R)-1-(1-methylcyclopropyl)ethyl)carbamoyl)bicyclo[2.2.1]heptan-2-yl)-5-((6S,7aS)-6-(hydroxymethyl)-5,6,7,7a-tetrahydropyrrolo [1,2-d][1,2,4]oxadiazo 1-3-yl)-2-methoxynicotinamide], 2.6 nM. Regarding `COc1ncc(-c2ccc(C(=O)O)cc2)cc1C(=O)N[C@@H]1C2CCC(C2=C(C)C)[C@@H]1C(=O)Nc1ccc(F)c(C(F)(F)F)c1` (stereo partly drawn) [Example 20, 4-(5-{[(2R,3S)-3-{[4-fluoro-3-(trifluoromethyl)phenyl]carbamoyl}-7-(propan-2-ylidene)bicyclo[2.2.1]heptan-2-yl]carbamoyl}-6-methoxypyridin-3-yl)benzoic acid], the EC50 was determined as 250 nM.
